Data set [1] is described as follows: Titration of cloprostenol sodium with calcium or zinc salts, cloprostenol in supernatant by HPLC. Format: physicochemical. The procedure:
Water-insoluble salts of cloprostenol were investigated as a means of prolonging release of cloprostenol after administration. Solutions of cloprostenol sodium were titrated with calcium chloride, zinc chloride or zinc acetate solutions. The resulting mixtures were vortexed, left to stand overnight then observed for precipitation possibly due to formation of an insoluble salt. Samples with a visible precipitate were centrifuged at 15000 rpm for 5 min and the supernatant was then removed for analysis of cloprostenol by validated HPLC.

For data set [2] the following is noted: literature; cited from earlier work.
The nature of data set [3]: Authors' study / animal trial: half-life from terminal slope of plasma concentration versus time profile. Format: in vivo. Particulars: cattle, intramuscular. The procedure:
Literature has reported a half-life for cloprostenol of around 90 minutes, with a maximum concentration reached at around 10 to 20 minutes after administration.
The inventors have also used various models to describe the absorption kinetics of cloprostenol. The most recent model was to describe the release from SAIB formulations as occurring as a burst of some percentage of the dose followed by a rate of release proportional to the square root of time. In an animal trial, the inventors calculated the terminal slope of the plasma concentration versus time profile. If absorption is very rapid—ie. as from standard cloprostenol injection, Ovuprost™, this terminal slope is related to the elimination half-life of the cloprostenol. The inventors found this half-life to be 1 hour. The literature reports the elimination half-life of cloprostenol to be 1.5-3 hours. If absorption is slow, the terminal slope relates to the absorption rate of the cloprostenol from the injection.
In cattle, the conventional intramuscular injected dose of natural PGF2α is 25 mg whereas the intramuscular injected dose of cloprostenol in 0.5 mg. PGF2α has a half-life of about 8-10 minutes whereas the cloprostenol half-life is from around 1 hour as determined by the authors' study and reported elsewhere as 1.5-3 hours.

The nature of data set [4]: Chemical stability of cloprostenol in ethanol and Transcutol. Format: physicochemical. To be noted: 40° C., 4 days, HPLC. On the procedure: The chemical stability of cloprostenol was tested in ethanol and Transcutol. A cloprostenol solution (1 mg/ml) was prepared in each solvent and stored in at 40° C. for 4 days. The solutions were then removed and injected into HPLC for cloprostenol quantification and the chromatogram inspected for the formation of new (degradation) peaks. Cloprostenol in solution in ethanol and Transcutol at 40° C. was stable for the 4 days tested. […] There were no degradation peaks in the chromatograms.

A further data set can be described thus: physchem. The class given is physicochemical. To be noted: for solubility: water, water solubility. The procedure: Water-in-oil (w/o) emulsions of cloprostenol sodium were investigated for use as sustained release compositions of cloprostenol. […] In aqueous solution cloprostenol sodium micellises at concentrations around 5-10 mg/ml. The minimum quantity of water to dissolve a 3 mg dose of cloprostenol (as the sodium salt) is around 0.1 ml. Accordingly, a target volume of 2 ml of water-in-oil emulsion requires a minimum proportion of around 5% water to incorporate a 3 mg dose of cloprostenol.

We go through three compounds from patent US20260263482A1, “COMPOSITION AND METHOD FOR INDUCING LUTEOLYSIS” (WELFARE CONCEPTS LIMITED, priority 2023, published 2026).

Where two headings read alike, the source gives them in different places.

Regarding `O=C(O)CCC/C=C\CC1C(O)CC(O)C1/C=C/C(O)COc1cccc(Cl)c1` (stereo not drawn) [cloprostenol], the “cloprostenol still contained in supernatant at best yield of precipitate” value was “around 50%” in data set [1] (zinc acetate) and “around 74%” in data set [1] (zinc chloride as counter cation). The “elimination half-life of cloprostenol” value in data set [2] is 1.5 to 3 h. Further, the half-life for cloprostenol result in data set [2] was “around 90 minutes”. Further, the half-life (commonly the time needed for the level to fall by half in the phase considered) in data set [3] (Holstein, 0.5 mg, very rapid absorption, standard cloprostenol injection, read-out: half-life (terminal slope, elimination) (converted)) is roughly 1 h; in data set [3] (0.5 mg cloprostenol as the sodium salt in a fast-release aqueous composition, read-out: estimated half-life of cloprostenol in plasma) it was 0.25 to 1 h. Also, the measured drug content was 102% in data set [4] (1 mg/ml in Transcutol) and 101% in data set [4] (1 mg/ml in ethanol).

For the compound `O=C(O)CCC/C=C\CC1C(O)CC(O)C1/C=C/C(O)COc1cccc(Cl)c1` (stereo not drawn) [cloprostenol sodium], in the data set “physchem”, the “concentration at which it micellises in aqueous solution” value lay in the range of 5000 to 10000 µg/mL and the solubility (commonly how much of the substance goes into solution per volume) is greater than 10 mg/mL. For the same compound, in “physchem” (estimated), the solubility is roughly 35 mg/mL.

Take `O=C([O-])CCCC=CCC1C(O)CC(O)C1C=CC(O)COc1cccc(Cl)c1.O=C([O-])CCCC=CCC1C(O)CC(O)C1C=CC(O)COc1cccc(Cl)c1.[Ca+2]` (stereo not drawn) [calcium cloprostenol]: the “solubility of the calcium salt” value in data set [1] (titration with calcium chloride, mixtures remained apparently clear) is on record as “good solubility”.
